Reference: patent US20020049223A1, “Quinoline and naphthyridine carboxylic acid antibacterials” (priority 1999, published 2002)
Structures can show the parent of a compound that is named as a salt.

How the values were obtained:
Experiment in all cases: Assay B: in vitro antibacterial activity, broth microdilution MIC (NCCLS)
Type in all cases: cell-based
[1] = tested on: Staphylococcus aureus ATCC 6538P; conditions: Table 2, Assay B, cation-adjusted Mueller Hinton broth, 35° C., 16 to 20 hr; code A = Staphylococcus aureus ATCC 6538P; unit assumed
Protocol: (§1) Assay B. Determination of Biological Activity In Vitro Assay of Antibacterial Activity
(§2) Representative compounds of the invention were assayed in vitro for antibacterial activity. The susceptibilities of aerobic, nonfastidious species were determined visually by broth microdilution as described by the National Committee for Clinical Laboratory Standards (NCCLS) (National Committee for Clinical Laboratory Standards. 1997. Methods for dilution antimicrobial susceptibility tests for bacteria that grow aerobically. Approved standard M7-A4. National Committee for Clinical Laboratory Standards. Wayne, Pa.). In brief, serial two-fold dilutions of test compounds were made in cation-adjusted Mueller Hinton broth at two-times the final concentration. Inocula were prepared from overnight cultures of test strains. Tests were inoculated with a suspension of bacteria in Mueller Hinton broth to achieve a final density of approximately 5×10^5 CFU/mL. Tests were incubated at 35° C. in ambient air for 16 to 20 hr. Minimum Inhibitory Concentrations (MICs) were determined as the lowest drug concentration completely inhibiting growth. Ciprofloxacin was included as a control. For testing S. pneumoniae, the cation-adjusted Mueller Hinton broth was supplemented with 3% lysed horse blood and the incubation period was extended to 20 to 24 hr. For testing H. influenzae, the cation-adjusted Mueller Hinton broth was supplemented with 5 g/L yeast extract, […] and 15 mg/L NAD and incubation was extended to 20 to 24 hr..

[2] = tested on: Haemophilus influenzae DILL AMP R; conditions: Table 2, Assay B, Mueller Hinton broth with yeast extract, hematin and NAD, 20 to 24 hr; code E = Haemophilus influenzae DILL AMP R; unit assumed
Protocol: as §1, §2

[3] = tested on: Enterococcus faecalis PIU 1967; conditions: Table 2, Assay B, cation-adjusted Mueller Hinton broth, 35° C., 16 to 20 hr; code B = Enterococcus faecalis PIU 1967; unit assumed
Protocol: as §1, §2

[4] = tested on: Escherichia coli JUHL; conditions: Table 2, Assay B, cation-adjusted Mueller Hinton broth, 35° C., 16 to 20 hr; code D = Escherichia coli JUHL; unit assumed
Protocol: as §1, §2

[5] = tested on: Streptococcus pneumoniae ATCC 6303; conditions: Table 2, Assay B, Mueller Hinton broth with 3% lysed horse blood, 20 to 24 hr; code F = Streptococcus pneumoniae ATCC 6303; unit assumed
Protocol: as §1, §2

SMILES | Antibacterial Activity (MIC's), A [1] | Antibacterial Activity (MIC's), E [2] | Antibacterial Activity (MIC's), B [3] | Antibacterial Activity (MIC's), D [4] | Antibacterial Activity (MIC's), F [5]
COc1c(-c2cc3c(s2)CCCC3=NN2CCN(C)CC2)ccc2c(=O)c(C(=O)O)cn(C3CC3)c12 [Example 92, 1-cyclopropyl-8-methoxy-7-((4E/Z)-4-((4-methyl-1-piperazinyl)imino)-4,5,6,7-tetrahydro-1-benzothien-2-yl)-4-oxo-1,4-dihydro-3-quinolinecarboxylic acid] | 0.03 µg/mL | 0.06 µg/mL | 0.25 µg/mL | 1 µg/mL | 0.5 µg/mL
COc1c(-c2cc3c(s2)CCC/C3=N\OCc2cccnc2)ccc2c(=O)c(C(=O)O)cn(C3CC3)c12 [Example 182, 1-cyclopropyl-8-methoxy-4-oxo-7-((4E)-4-((3-pyridinylmethoxy)imino)-4,5,6,7-tetrahydro-1-benzothien-2-yl)-1,4-dihydro-3-quinolinecarboxylic acid] | 0.03 µg/mL | 0.125 µg/mL | 0.25 µg/mL | 1 µg/mL | 0.25 µg/mL
Cc1c(F)c(-c2cc3c(s2)C(N)CCC3)nc2c1c(=O)c(C(=O)O)cn2C1CC1.Cl (stereo not shown) [Example 371, 7-(7-amino-4,5,6,7-tetrahydro-1-benzothien-2-yl)-1-cyclopropyl-6-fluoro-5-methyl-4-oxo-1,4-dihydro-1,8-naphthyridine-3-carboxylic acid hydrochloride] | ≤ 0.004 µg/mL | 0.03 µg/mL | 0.03 µg/mL | 0.06 µg/mL | ≤ 0.004 µg/mL
CNC1CCCc2cc(-c3ccc4c(=O)c(C(=O)O)cn(C5CC5)c4c3OC)sc21.Cl (stereo not shown) [Example 216, 1-cyclopropyl-8-methoxy-7-(7-(methylamino)-4,5,6,7-tetrahydro-1-benzothien-2-yl)-4-oxo-1,4-dihydro-3-quinolinecarboxylic acid hydrochloride] | 0.06 µg/mL | 0.125 µg/mL | 0.25 µg/mL | 0.25 µg/mL | 0.125 µg/mL
CCON=C1CCc2sc(-c3ccc4c(=O)c(C(=O)O)cn(C5CC5)c4c3OC)cc2C1 [Example 78, 1-cyclopropyl-7-((5E/Z)-5-(ethoxyimino)-4,5,6,7-tetrahydro-1-benzothien-2-yl)-8-methoxy-4-oxo-1,4-dihydro-3-quinolinecarboxylic acid] | 0.125 µg/mL | 2 µg/mL | 1 µg/mL | 4 µg/mL | 0.25 µg/mL
Cl.NC1CCCc2sc(-c3ccc4c(=O)c(C(=O)O)cn(C5CC5)c4c3)cc21 (stereo not shown) [Example 287, 7-(4-amino-4,5,6,7-tetrahydro-1-benzothien-2-yl)-1-cyclopropyl-4-oxo-1,4-dihydroquinoline-3-carboxylic acid hydrochloride] | 0.03 µg/mL | 0.03 µg/mL | 0.125 µg/mL | 0.06 µg/mL | 0.03 µg/mL
COc1c(-c2cc3c(s2)C(N)C(F)(F)CC3)ccc2c(=O)c(C(=O)O)cn(C3CC3)c12.Cl (stereo not shown) [Example 244, 7-(7-amino-6,6-difluoro-4,5,6,7-tetrahydro-1-benzothien-2-yl)-1-cyclopropyl-8-methoxy-4-oxo-1,4-dihydro-3-quinolinecarboxylic acid hydrochloride] | ≤ 0.004 µg/mL | 0.06 µg/mL | 0.125 µg/mL | 1 µg/mL | 1 µg/mL
COc1c(-c2cc3c(s2)CCCC3NCc2cccnc2)ccc2c(=O)c(C(=O)O)cn(C3CC3)c12.Cl.Cl (stereo not shown) [Example 94, 1-cyclopropyl-8-methoxy-4-oxo-7-(4-((3-pyridinylmethyl)amino)-4,5,6,7-tetrahydro-1-benzothien-2-yl)-1,4-dihydro-3-quinolinecarboxylic acid dihydrochloride] | 0.125 µg/mL | 0.25 µg/mL | 1 µg/mL | 1 µg/mL | 0.5 µg/mL
COc1c(-c2cc3c(s2)CCCC3NCc2cccc(F)c2)ccc2c(=O)c(C(=O)O)cn(C3CC3)c12 (stereo not shown) [Example 104, 1-cyclopropyl-7-(4-((3-fluorobenzyl)amino)-4,5,6,7-tetrahydro-1-benzothien-2-yl)-8-methoxy-4-oxo-1,4-dihydro-3-quinolinecarboxylic acid hydrochloride] | 0.25 µg/mL | 0.25 µg/mL | 1 µg/mL | 2 µg/mL | 0.5 µg/mL
CON=C1CCc2cc(-c3ccc4c(=O)c(C(=O)O)cn(C5CC5)c4c3OC)sc2C1 [Example 66, 1-cyclopropyl-8-methoxy-7-((6E/Z)-6-(methoxyimino)-4,5,6,7-tetrahydro-1-benzothien-2-yl)-4-oxo-1,4-dihydro-3-quinolinecarboxylic acid] | 0.06 µg/mL | 0.5 µg/mL | 0.5 µg/mL | 2 µg/mL | 0.5 µg/mL
COc1c(-c2cc3c(s2)CC(C)(C)CC3O)ccc2c(=O)c(C(=O)O)cn(C3CC3)c12 (stereo not shown) [Example 234, 1-cyclopropyl-7-(4-hydroxy-6,6-dimethyl-4,5,6,7-tetrahydro-1-benzothien-2-yl)-8-methoxy-4-oxo-1,4-dihydro-3-quinolinecarboxylic acid] | 0.03 µg/mL | 0.5 µg/mL | 0.5 µg/mL | 2 µg/mL | 0.5 µg/mL
CON=C1CCc2sc(-c3ccc4c(=O)c(C(=O)O)cn(C5CC5)c4c3OC)cc2C1 [Example 56, 1-cyclopropyl-8-methoxy-7-((5E/Z)-5-(methoxnimino)-4,5,6,7-tetrahydro-1-benzothien-2-yl)-4-oxo-1,4-dihydro-3-quinolinecarboxylic acid] | 0.03 µg/mL | 0.25 µg/mL | 0.5 µg/mL | 4 µg/mL | 0.125 µg/mL
COc1c(-c2cc3c(s2)CC(NC(C)=O)C3)ccc2c(=O)c(C(=O)O)cn(C3CC3)c12 (stereo not shown) [Example 252, 7-(5-(acetylamino)-5,6-dihydro-4H-cyclopenta[b]thien-2-yl)-1-cyclopropyl-8-methoxy-4-oxo-1,4-dihydro-3-quinolinecarboxylic acid] | 0.5 µg/mL | 0.25 µg/mL | 1 µg/mL | 4 µg/mL | 1 µg/mL
COc1c(-c2cc3c(s2)CCC(Br)C3=O)ccc2c(=O)c(C(=O)O)cn(C3CC3)c12 (stereo not shown) [Example 58, 7-(5-bromo-4-oxo-4,5,6,7-tetrahydro-1-benzothien-2-yl)-1-cyclopropyl-8-methoxy-4-oxo-1,4-dihydro-3-quinolinecarboxylic acid] | 0.004 µg/mL | 0.015 µg/mL | 0.06 µg/mL | 0.25 µg/mL | 0.06 µg/mL
CNC1CCCc2sc(-c3c(F)cc4c(=O)c(C(=O)O)cn(C5CC5)c4c3OC)cc21.Cl (stereo not shown) [Example 210, 1-cyclopropyl-6-fluoro-8-methoxy-7-(4-(methylamino)-4,5,6,7-tetrahydro-1-benzothien-2-yl)-4-oxo-1,4-dihydro-3-quinolinecarboxylic acid hydrochloride] | 0.06 µg/mL | 0.03 µg/mL | 0.125 µg/mL | 0.25 µg/mL | 0.06 µg/mL
CC1(C)CCc2cc(-c3ccc4c(=O)c(C(=O)O)cn(C5CC5)c4c3Cl)sc2C1N.Cl (stereo not shown) [Example 347, 7-(7-amino-6,6-dimethyl-4,5,6,7-tetrahydro-1-benzothien-2-yl)-8-chloro-1-cyclopropyl-4-oxo-1,4-dihydroquinoline-3-carboxylic acid hydrochloride] | 0.03 µg/mL | 0.06 µg/mL | 0.25 µg/mL | 0.25 µg/mL | 0.125 µg/mL
CNC1CCc2sc(-c3ccc4c(=O)c(C(=O)O)cn(C5CC5)c4c3OC)cc2C1.Cl (stereo not shown) [Example 125, 1-cyclopropyl-8-methoxy-7-(5-(methylamino)-4,5,6,7-tetrahydro-1-benzothien-2-yl)-4-oxo-1,4-dihydro-3-quinolinecarboxylic acid hydrochloride] | 0.004 µg/mL | 0.03 µg/mL | 0.25 µg/mL | 0.125 µg/mL | 0.03 µg/mL
